In patent publication US20140045824A1, “METHOD FOR PRODUCING COMPLEX CRYSTAL AND METHOD FOR SCREENING COMPLEX CRYSTAL” (priority 2011, published 2014):

Tests used:
Format in all cases: physicochemical
[1] = Cocrystal screening by slurry method (Comparative Examples 4-1 to 4-6), powder X-ray diffraction; design: key: A cocrystal was completely formed.; B: A mixture of a cocrystal and the host compound or guest compound was formed.; C: A cocrystal was not formed (a mixture of the host compound and the guest compound was formed); details: host carbamazepine; for Cocrystal formation, Comparative Example 4-6: slurry in acetone; for Cocrystal formation, Comparative Example 4-6 / Cocrystal formation, Comparative Example 4-2 / Cocrystal formation, Comparative Example 4-5 / Cocrystal formation, Comparative Example 4-4 / Cocrystal formation, Comparative Example 4-1 / Cocrystal formation, Comparative Example 4-3: room temperature 7 days; for Cocrystal formation, Comparative Example 4-2: slurry in ethanol; for Cocrystal formation, Comparative Example 4-5: slurry in ethyl acetate; for Cocrystal formation, Comparative Example 4-4: slurry in toluene; for Cocrystal formation, Comparative Example 4-1: slurry in water; for Cocrystal formation, Comparative Example 4*: slurry summary: A if a cocrystal was formed in any one of Comparative Examples 4-1 to 4-6; for Cocrystal formation, Comparative Example 4-3: slurry in tetrahydrofuran
Procedure: 3 mg (0.0127 mmoles) of carbamazepine and a guest compound shown in Table 4 in an equimolar amount (0.0127 mmoles) to carbamazepine were weighed and put into a glass container, to which was then added 60 μL of water. These were shaken at room temperature for 7 days, and the obtained residues were subjected to powder X-ray diffraction measurement. 3 mg (0.0127 mmoles) of carbamazepine and a guest compound shown in Table 4 in an equimolar amount (0.0127 mmoles) to carbamazepine were weighed and put into a glass container, to which was then added 60 μL of ethanol. These were shaken at room temperature for 7 days, and the obtained residues were subjected to powder X-ray diffraction measurement. 3 mg (0.0127 mmoles) of carbamazepine and a guest compound shown in Table 4 in an equimolar amount (0.0127 mmoles) to carbamazepine were weighed and put into a glass container, to which was then added 60 μL of tetrahydrofuran. These were shaken at room temperature for 7 days, and the obtained residues were subjected to powder X-ray diffraction measurement. 3 mg (0.0127 mmoles) of carbamazepine and a guest compound shown in Table 4 in an equimolar amount (0.0127 mmoles) to carbamazepine were weighed and put into a glass container, to which was then added 60 μL of toluene. These were shaken at room temperature for 7 days, and the obtained residues were subjected to powder X-ray diffraction measurement. 3 mg (0.0127 mmoles) of carbamazepine and a guest compound shown in Table 4 in an equimolar amount (0.0127 mmoles) to carbamazepine were weighed and put into a glass container, to which was then added 60 μL of ethyl acetate. These were shaken at room temperature for 7 days, and the obtained residues were subjected to powder X-ray diffraction measurement. 3 mg (0.0127 mmoles) of carbamazepine and a guest compound shown in Table 4 in an equimolar amount (0.0127 mmoles) to carbamazepine were weighed and put into a glass container, to which was then added 60 μL of acetone. These were shaken at room temperature for 7 days, and the obtained residues were subjected to powder X-ray diffraction measurement.

[2] = Cocrystal screening by heat melting 1-menthol (Example 1), powder X-ray diffraction and thermal analysis; design: key to Cocrystal formation, Example 1: A cocrystal was completely formed.; B: A mixture of a cocrystal and the host compound or guest compound was formed.; C: A cocrystal was not formed (a mixture of the host compound and the guest compound was formed); details: host theophylline, equimolar guest, 1-menthol added, 4 hours at 80° C.
Procedure: Theophylline and a guest compound shown in Table 1 in an equimolar amount to theophylline were weighed and mixed using an agate mortar. […] Thereafter, the obtained mixed powder of theophylline, the guest compound, and 1-menthol was heated for 4 hours in an oven at 80° C., and the obtained solid was subjected to powder X-ray diffraction measurement and thermal analysis.

[3] = Cocrystal screening by heating method without menthol (Comparative Example 6); design: key: A cocrystal was completely formed.; B: A mixture of a cocrystal and the host compound or guest compound was formed.; C: A cocrystal was not formed (a mixture of the host compound and the guest compound was formed); details: host carbamazepine, equimolar guest, no menthol, 4 hours at 80° C.
Procedure: (§1) Carbamazepine and a guest compound shown in Table 4 in an equimolar amount to carbamazepine were weighed and mixed using an agate mortar. At that time, particles having a large size to an extent that they could be distinguished through visual inspection were grinded on the agate mortar. 10 mg of this mixed powder was weighed and put into a test tube and heated for 4 hours in an oven at 80° C., and the obtained solids were subjected to powder X-ray diffraction measurement and thermal analysis.

[4] = Cocrystal screening by slurry method (Comparative Examples 1-1 to 1-6), powder X-ray diffraction; design: key to Cocrystal formation, Comparative Example 1* / Cocrystal formation, Comparative Example 1-1 / Cocrystal formation, Comparative Example 1-2 / Cocrystal formation, Comparative Example 1-3 / Cocrystal formation, Comparative Example 1-4 / Cocrystal formation, Comparative Example 1-5 / Cocrystal formation, Comparative Example 1-6: A cocrystal was completely formed.; B: A mixture of a cocrystal and the host compound or guest compound was formed.; C: A cocrystal was not formed (a mixture of the host compound and the guest compound was formed); details: host theophylline; for Cocrystal formation, Comparative Example 1-6: slurry in acetone; for Cocrystal formation, Comparative Example 1-6 / Cocrystal formation, Comparative Example 1-2 / Cocrystal formation, Comparative Example 1-5 / Cocrystal formation, Comparative Example 1-3 / Cocrystal formation, Comparative Example 1-4 / Cocrystal formation, Comparative Example 1-1: room temperature 7 days; for Cocrystal formation, Comparative Example 1-2: slurry in ethanol; for Cocrystal formation, Comparative Example 1-5: slurry in ethyl acetate; for Cocrystal formation, Comparative Example 1-3: slurry in tetrahydrofuran; for Cocrystal formation, Comparative Example 1-4: slurry in toluene; for Cocrystal formation, Comparative Example 1-1: slurry in water; for Cocrystal formation, Comparative Example 1*: slurry summary: A if a cocrystal was formed in any one of Comparative Examples 1-1 to 1-6
Procedure: 3 mg (0.0167 mmoles) of theophylline and a guest compound shown in Table 1 in an equimolar amount (0.0167 mmoles) to theophylline were weighed and put into a glass container, to which was then added 60 μL of water. These were shaken at room temperature for 7 days, and the obtained residues were subjected to powder X-ray diffraction measurement. 3 mg (0.0167 mmoles) of theophylline and a guest compound shown in Table I in an equimolar amount (0.0167 mmoles) to theophylline were weighed and put into a glass container, to which was then added 60 μL of ethanol. These were shaken at room temperature for 7 days, and the obtained residues were subjected to powder X-ray diffraction measurement. 3 mg (0.0167 mmoles) of theophylline and a guest compound shown in Table 1 in an equimolar amount (0.0167 mmoles) to theophylline were weighed and put into a glass container, to which was then added 60 μL of tetrahydrofuran. This was shaken at room temperature for 7 days, and the obtained residues were subjected to powder X-ray diffraction measurement. 3 mg (0.0167 mmoles) of theophylline and a guest compound shown in Table 1 in an equimolar amount (0.0167 mmoles) to theophylline were weighed and put into a glass container, to which was then added 60 μL of toluene. These were shaken at room temperature for 7 days, and the obtained residues were subjected to powder X-ray diffraction measurement. 3 mg (0.0167 mmoles) of theophylline and a guest compound shown in Table 1 in an equimolar amount (0.0167 mmoles) to theophylline were weighed and put into a glass container, to which was then added 60 μL of ethyl acetate. These were shaken at room temperature for 7 days, and the obtained residues were subjected to powder X-ray diffraction measurement. 3 mg (0.0167 mmoles) of theophylline and a guest compound shown in Table 1 in an equimolar amount (0.0167 mmoles) to theophylline were weighed and put into a glass container, to which was then added 60 μL of acetone. These were shaken at room temperature for 7 days, and the obtained residues were subjected to powder X-ray diffraction measurement.

[5] = Cocrystal screening by mixing and grinding method (Comparative Example 5); design: key: A cocrystal was completely formed.; B: A mixture of a cocrystal and the host compound or guest compound was formed.; C: A cocrystal was not formed (a mixture of the host compound and the guest compound was formed); details: host carbamazepine, equimolar guest, mixed/ground in agate mortar
Description: as §1, with “The” for “10 mg of this mixed powder was weighed and put into a test tube and heated for 4 hours in an oven at 80° C., and the”

## C/C=C/C=C/C(=O)O [Sorbic acid]
[1]
  Cocrystal formation, Comparative Example 4-6: C
  Cocrystal formation, Comparative Example 4-2: C
  Cocrystal formation, Comparative Example 4-5: C
  Cocrystal formation, Comparative Example 4-4: C
  Cocrystal formation, Comparative Example 4-1: C
  Cocrystal formation, Comparative Example 4*: C
[2]
  Cocrystal formation, Example 1: B
[3]
  Cocrystal formation, Comparative Example 6: B
[4]
  Cocrystal formation, Comparative Example 1-6: C
  Cocrystal formation, Comparative Example 1-2: C
  Cocrystal formation, Comparative Example 1-5: A
  Cocrystal formation, Comparative Example 1-3: C
  Cocrystal formation, Comparative Example 1-4: A
  Cocrystal formation, Comparative Example 1-1: C
  Cocrystal formation, Comparative Example 1*: A
[5]
  Cocrystal formation, Comparative Example 5: C

## NC(=O)c1ccccc1 [Benzamide]
[1]
  Cocrystal formation, Comparative Example 4-6: C
  Cocrystal formation, Comparative Example 4-2: A
  Cocrystal formation, Comparative Example 4-5: A
  Cocrystal formation, Comparative Example 4-3: A
  Cocrystal formation, Comparative Example 4-4: A
  Cocrystal formation, Comparative Example 4-1: B
  Cocrystal formation, Comparative Example 4*: A
[2]
  Cocrystal formation, Example 1: A
[3]
  Cocrystal formation, Comparative Example 6: B
[4]
  Cocrystal formation, Comparative Example 1-6: C
  Cocrystal formation, Comparative Example 1-2: C
  Cocrystal formation, Comparative Example 1-5: C
  Cocrystal formation, Comparative Example 1-3: C
  Cocrystal formation, Comparative Example 1-4: C
  Cocrystal formation, Comparative Example 1-1: A
  Cocrystal formation, Comparative Example 1*: A
[5]
  Cocrystal formation, Comparative Example 5: C

## O=S(=O)(O)CCS(=O)(=O)O [Ethanedisulfonic acid]
[1]
  Cocrystal formation, Comparative Example 4-6: A
  Cocrystal formation, Comparative Example 4-2: A
  Cocrystal formation, Comparative Example 4-5: A
  Cocrystal formation, Comparative Example 4-3: A
  Cocrystal formation, Comparative Example 4-4: A
  Cocrystal formation, Comparative Example 4-1: C
  Cocrystal formation, Comparative Example 4*: A
[2]
  Cocrystal formation, Example 1: A
[3]
  Cocrystal formation, Comparative Example 6: B
[4]
  Cocrystal formation, Comparative Example 1-6: A
  Cocrystal formation, Comparative Example 1-2: A
  Cocrystal formation, Comparative Example 1-5: A
  Cocrystal formation, Comparative Example 1-3: A
  Cocrystal formation, Comparative Example 1-4: A
  Cocrystal formation, Comparative Example 1-1: C
  Cocrystal formation, Comparative Example 1*: A
[5]
  Cocrystal formation, Comparative Example 5: C

## O=C(O)CCCC(=O)O [Glutaric acid]
[1]
  Cocrystal formation, Comparative Example 4-6: C
  Cocrystal formation, Comparative Example 4-2: C
  Cocrystal formation, Comparative Example 4-5: C
  Cocrystal formation, Comparative Example 4-4: C
  Cocrystal formation, Comparative Example 4-1: C
  Cocrystal formation, Comparative Example 4*: C
[2]
  Cocrystal formation, Example 1: A
[3]
  Cocrystal formation, Comparative Example 6: B
[4]
  Cocrystal formation, Comparative Example 1-6: C
  Cocrystal formation, Comparative Example 1-2: C
  Cocrystal formation, Comparative Example 1-5: C
  Cocrystal formation, Comparative Example 1-3: C
  Cocrystal formation, Comparative Example 1-4: C
  Cocrystal formation, Comparative Example 1-1: C
  Cocrystal formation, Comparative Example 1*: C
[5]
  Cocrystal formation, Comparative Example 5: C

## O=C(O)CC(O)(CC(=O)O)C(=O)O [Citric acid]
[1]
  Cocrystal formation, Comparative Example 4-6: C
  Cocrystal formation, Comparative Example 4-2: C
  Cocrystal formation, Comparative Example 4-4: C
  Cocrystal formation, Comparative Example 4-1: C
  Cocrystal formation, Comparative Example 4*: C
[2]
  Cocrystal formation, Example 1: A
[3]
  Cocrystal formation, Comparative Example 6: B
[4]
  Cocrystal formation, Comparative Example 1-6: C
  Cocrystal formation, Comparative Example 1-2: C
  Cocrystal formation, Comparative Example 1-5: A
  Cocrystal formation, Comparative Example 1-3: C
  Cocrystal formation, Comparative Example 1-4: C
  Cocrystal formation, Comparative Example 1-1: C
  Cocrystal formation, Comparative Example 1*: A
[5]
  Cocrystal formation, Comparative Example 5: C

## CC(C)C[C@H](N)C(=O)O [L-Leucine]
[1]
  Cocrystal formation, Comparative Example 4-6: C
  Cocrystal formation, Comparative Example 4-2: C
  Cocrystal formation, Comparative Example 4-5: C
  Cocrystal formation, Comparative Example 4-4: C
  Cocrystal formation, Comparative Example 4-1: C
  Cocrystal formation, Comparative Example 4*: C
[2]
  Cocrystal formation, Example 1: C
[3]
  Cocrystal formation, Comparative Example 6: C
[4]
  Cocrystal formation, Comparative Example 1-6: C
  Cocrystal formation, Comparative Example 1-2: C
  Cocrystal formation, Comparative Example 1-5: C
  Cocrystal formation, Comparative Example 1-3: C
  Cocrystal formation, Comparative Example 1-4: C
  Cocrystal formation, Comparative Example 1-1: C
  Cocrystal formation, Comparative Example 1*: C
[5]
  Cocrystal formation, Comparative Example 5: C
